Measured values taken from patent publication US12144795B2, “Cannabidiol compositions having modified cannabinoid profiles” (priority 2018, dated 2024).

Assay: Stability studies of CBD prepared via Protocol 3 (crude, pure, 2x recrystallized; 5° C., 25° C./60% RH, 40° C./75% RH)
Format: physicochemical

With `C=C(C)[C@@H]1CCC(C)=C[C@H]1c1c(O)cc(CCCCC)cc1O` [Crude CBD] the Appearance (25° C./60% RH, 0 month) was “White”, the “Assay by HPLC” value (25° C./60% RH, 0 month) was 99.9% and the “Each unspecified impurity: RRT~1.540” value (25° C./60% RH, 0 month) was 0.06%. The “Each unspecified impurity: RRT~1.690” value (25° C./60% RH, 0 month) was 0.11%, the “Related substances by HPLC (low level): Δ9-Tetrahydrocannabinol” value (25° C./60% RH, 0 month) was 26 ppm and the “Related substances by HPLC: 4-Monobromo-CBD” value (25° C./60% RH, 0 month) was <0.03% (0.02%). For the same compound, the “Related substances by HPLC: Olivetol” value (25° C./60% RH, 0 month) was <0.03% (ND), the “Related substances by HPLC: Sum of impurities, ≥0.05%” value (from here on “Related substances by HPLC … ≥0.05%”) (25° C./60% RH, 0 month) was 0.17% and the “Related substances by HPLC: Δ9-Tetrahydrocannabinol” value (25° C./60% RH, 0 month) was <0.02% (ND). For the same compound, the Appearance (25° C./60% RH, 1 month) was “Off-White”, the “Assay by HPLC” value (25° C./60% RH, 1 month) was 98.2% and the “Each unspecified impurity: RRT~1.927” value (25° C./60% RH, 1 month) was 0.07%. The “Each unspecified impurity: RRT~2.146” value (25° C./60% RH, 1 month) was 0.12%, the “Related substances by HPLC (low level): Δ8-Tetrahydrocannabinol” value (25° C./60% RH, 1 month) was 6 ppm and the “Related substances by HPLC (low level): Δ9-Tetrahydrocannabinol” value (25° C./60% RH, 1 month) was 29 ppm. For the same compound, the “Related substances by HPLC: 4-Monobromo-CBD” value (25° C./60% RH, 1 month) was <0.03% (0.02), the “Related substances by HPLC: Olivetol” value (25° C./60% RH, 1 month) was <0.03% (ND) and the “Related substances by HPLC … ≥0.05%” value (25° C./60% RH, 1 month) was 0.19%. For the same compound, the “Related substances by HPLC: Δ8-Tetrahydrocannabinol” value (25° C./60% RH, 1 month) was <0.02% (ND), the “Related substances by HPLC: Δ9-Tetrahydrocannabinol” value (25° C./60% RH, 1 month) was <0.02% (ND) and the Appearance (25° C./60% RH, 2 months) was “Off-White”. The “Assay by HPLC” value (25° C./60% RH, 2 months) was 99.5%, the “Each unspecified impurity: RRT~1.931” value (25° C./60% RH, 2 months) was 0.06% and the “Each unspecified impurity: RRT~2.151” value (25° C./60% RH, 2 months) was 0.09%. The “Related substances by HPLC (low level): Δ8-Tetrahydrocannabinol” value (25° C./60% RH, 2 months) was 5 ppm, the “Related substances by HPLC (low level): Δ9-Tetrahydrocannabinol” value (25° C./60% RH, 2 months) was 27 ppm and the “Related substances by HPLC: 4-Monobromo-CBD” value (25° C./60% RH, 2 months) was <0.03% (0.02%). For the same compound, the “Related substances by HPLC: Olivetol” value (25° C./60% RH, 2 months) was <0.03% (0.02%), the “Related substances by HPLC … ≥0.05%” value (25° C./60% RH, 2 months) was 0.15% and the “Related substances by HPLC: Δ8-Tetrahydrocannabinol” value (25° C./60% RH, 2 months) was <0.02% (ND). The “Related substances by HPLC: Δ9-Tetrahydrocannabinol” value (25° C./60% RH, 2 months) was <0.02% (ND), the Appearance (25° C./60% RH, 3 months) was “Off-white” and the “Assay by HPLC” value (25° C./60% RH, 3 months) was 98.1%. The “Each unspecified impurity: RRT~1.983” value (25° C./60% RH, 3 months) was 0.05%, the “Each unspecified impurity: RRT~2.260” value (25° C./60% RH, 3 months) was 0.10% and the “Related substances by HPLC (low level): Δ8-Tetrahydrocannabinol” value (25° C./60% RH, 3 months) was 8 ppm. For the same compound, the “Related substances by HPLC (low level): Δ9-Tetrahydrocannabinol” value (25° C./60% RH, 3 months) was 13 ppm, the “Related substances by HPLC: 4-Monobromo-CBD” value (25° C./60% RH, 3 months) was <0.03% (0.02%) and the “Related substances by HPLC: Olivetol” value (25° C./60% RH, 3 months) was <0.03% (ND). The “Related substances by HPLC … ≥0.05%” value (25° C./60% RH, 3 months) was 0.15%, the “Related substances by HPLC: Δ8-Tetrahydrocannabinol” value (25° C./60% RH, 3 months) was <0.02% (ND) and the “Related substances by HPLC: Δ9-Tetrahydrocannabinol” value (25° C./60% RH, 3 months) was <0.02% (ND). The Appearance (40° C./75% RH, 0 month) was “White”, the “Assay by HPLC” value (40° C./75% RH, 0 month) was 99.9% and the “Each unspecified impurity: RRT~1.540” value (40° C./75% RH, 0 month) was 0.06%. The “Each unspecified impurity: RRT~1.690” value (40° C./75% RH, 0 month) was 0.11%, the “Related substances by HPLC (low level): Δ9-Tetrahydrocannabinol” value (40° C./75% RH, 0 month) was 26 ppm and the “Related substances by HPLC: 4-Monobromo-CBD” value (40° C./75% RH, 0 month) was <0.03% (0.02%). The “Related substances by HPLC: Olivetol” value (40° C./75% RH, 0 month) was <0.03% (ND), the “Related substances by HPLC … ≥0.05%” value (40° C./75% RH, 0 month) was 0.17% and the “Related substances by HPLC: Δ9-Tetrahydrocannabinol” value (40° C./75% RH, 0 month) was <0.02% (ND). The Appearance (40° C./75% RH, 1 month) was “Yellow Powder”, the “Assay by HPLC” value (40° C./75% RH, 1 month) was 98.7% and the “Each unspecified impurity: RRT~1.928” value (40° C./75% RH, 1 month) was 0.06%. For the same compound, the “Each unspecified impurity: RRT~2.150” value (40° C./75% RH, 1 month) was 0.11%, the “Related substances by HPLC (low level): Δ8-Tetrahydrocannabinol” value (40° C./75% RH, 1 month) was 7 ppm and the “Related substances by HPLC (low level): Δ9-Tetrahydrocannabinol” value (40° C./75% RH, 1 month) was 28 ppm. For the same compound, the “Related substances by HPLC: 4-Monobromo-CBD” value (40° C./75% RH, 1 month) was <0.03% (0.02), the “Related substances by HPLC: Olivetol” value (40° C./75% RH, 1 month) was <0.03% (ND) and the “Related substances by HPLC … ≥0.05%” value (40° C./75% RH, 1 month) was 0.17%. For the same compound, the “Related substances by HPLC: Δ8-Tetrahydrocannabinol” value (40° C./75% RH, 1 month) was <0.02% (ND), the “Related substances by HPLC: Δ9-Tetrahydrocannabinol” value (40° C./75% RH, 1 month) was <0.02% (ND) and the Appearance (40° C./75% RH, 2 months) was “Off-White”. The “Assay by HPLC” value (40° C./75% RH, 2 months) was 99.6%, the “Each unspecified impurity: RRT~1.931” value (40° C./75% RH, 2 months) was 0.06% and the “Each unspecified impurity: RRT~2.151” value (40° C./75% RH, 2 months) was 0.07%. The “Related substances by HPLC (low level): Δ8-Tetrahydrocannabinol” value (40° C./75% RH, 2 months) was 4 ppm, the “Related substances by HPLC (low level): Δ9-Tetrahydrocannabinol” value (40° C./75% RH, 2 months) was 27 ppm and the “Related substances by HPLC: 4-Monobromo-CBD” value (40° C./75% RH, 2 months) was <0.03% (0.02). For the same compound, the “Related substances by HPLC: Olivetol” value (40° C./75% RH, 2 months) was <0.03% (ND), the “Related substances by HPLC … ≥0.05%” value (40° C./75% RH, 2 months) was 0.13% and the “Related substances by HPLC: Δ8-Tetrahydrocannabinol” value (40° C./75% RH, 2 months) was <0.02% (ND). The “Related substances by HPLC: Δ9-Tetrahydrocannabinol” value (40° C./75% RH, 2 months) was <0.02% (ND), the Appearance (40° C./75% RH, 3 months) was “Off-white” and the “Assay by HPLC” value (40° C./75% RH, 3 months) was 99.0%. For the same compound, the “Each unspecified impurity: RRT~1.982” value (40° C./75% RH, 3 months) was 0.05%, the “Each unspecified impurity: RRT~2.258” value (40° C./75% RH, 3 months) was 0.09% and the “Related substances by HPLC (low level): Δ8-Tetrahydrocannabinol” value (40° C./75% RH, 3 months) was 8 ppm. The “Related substances by HPLC (low level): Δ9-Tetrahydrocannabinol” value (40° C./75% RH, 3 months) was 17 ppm, the “Related substances by HPLC: 4-Monobromo-CBD” value (40° C./75% RH, 3 months) was <0.03% (0.02) and the “Related substances by HPLC: Olivetol” value (40° C./75% RH, 3 months) was <0.03% (ND). The “Related substances by HPLC … ≥0.05%” value (40° C./75% RH, 3 months) was 0.14%, the “Related substances by HPLC: Δ8-Tetrahydrocannabinol” value (40° C./75% RH, 3 months) was <0.02% (ND) and the “Related substances by HPLC: Δ9-Tetrahydrocannabinol” value (40° C./75% RH, 3 months) was <0.02% (ND). The Appearance (40° C./75% RH, 5 months) was “Beige/off-”, the “Assay by HPLC” value (40° C./75% RH, 5 months) was 98.6% and the “Each unspecified impurity: Methadienol deg-1” value (40° C./75% RH, 5 months) was “deg-1: 0.03%”. The “Each unspecified impurity: RRT~0.956” value (40° C./75% RH, 5 months) was 0.04%, the “Each unspecified impurity: RRT~1.918” value (40° C./75% RH, 5 months) was 0.05% and the “Related substances by HPLC (low level): Δ8-Tetrahydrocannabinol” value (40° C./75% RH, 5 months) was 36 ppm. For the same compound, the “Related substances by HPLC (low level): Δ9-Tetrahydrocannabinol” value (40° C./75% RH, 5 months) was 24 ppm, the “Related substances by HPLC: 4-Monobromo-CBD” value (40° C./75% RH, 5 months) was <0.03% (ND) and the “Related substances by HPLC: Olivetol” value (40° C./75% RH, 5 months) was <0.03% (ND). The “Related substances by HPLC … ≥0.05%” value (40° C./75% RH, 5 months) was 0.05%, the “Related substances by HPLC: Δ8-Tetrahydrocannabinol” value (40° C./75% RH, 5 months) was <0.02% (ND) and the “Related substances by HPLC: Δ9-Tetrahydrocannabinol” value (40° C./75% RH, 5 months) was <0.02% (ND).
